Paper PMC9145245, “Synthesis and Biochemical Evaluation of 8H-Indeno[1,2-d]thiazole Derivatives as Novel SARS-CoV-2 3CL Protease Inhibitors” (Molecules, 2022)
Read-outs that look alike come from different tables or passages of the source.

Target: SARS-CoV-2 3CL^pro (Severe acute respiratory syndrome coronavirus 2, UniProt P0DTD1)
Experiment: biochemical
Format: biochemical
Conditions: for inhibition at 20 µM: 20 μM compound; for inhibitory activity against SARS-CoV-2 3CL^pro (in words, SAR discussion): compared with 7a (7i–7k with 7h)
[1] = recombinant 3CLpro 40 nM, mean ± SD, n = 3
[2] = recombinant 3CLpro 40 nM, substrate 40 μM, mean ± SD, n = 3, read-out: SARS-CoV-2 3CL^pro IC50

Row | SMILES | inhibition at 20 µM [1] | inhibitory activity against SARS-CoV-2 3CL^pro (in words, SAR discussion) | IC50 [2] | IC50
1 | COc1cccc(C(=O)Nc2nc3c(s2)Cc2cc(OC)ccc2-3)c1 [compound 7h, 3-methoxy-N-(6-methoxy-8H-indeno[1,2-d]thiazol-2-yl)benzamide] | 72.5 ± 6.1% | almost maintained its inhibitory activities | 2.86 ± 0.11 µM | 
2 | COc1ccc2c(c1)Cc1sc(NC(=O)c3cccc(F)c3)nc1-2 [compound 7i, 3-fluoro-N-(6-methoxy-8H-indeno[1,2-d]thiazol-2-yl)benzamide] | 20.3 ± 4.7% |  | > 20 µM | 
3 | COc1cc(OC)cc(C(=O)Nc2nc3c(s2)Cc2cc(Cl)ccc2-3)c1 [compound 7e, N-(6-chloro-8H-indeno[1,2-d]thiazol-2-yl)-3,5-dimethoxybenzamide] | 27.2 ± 5.3% | completely abolished | > 20 µM | 
4 | COc1ccc2c(c1)Cc1sc(NC(=O)c3cc(OC)c(OC)c(OC)c3)nc1-2 [compound 7f, 3,4,5-trimethoxy-N-(6-methoxy-8H-indeno[1,2-d]thiazol-2-yl)benzamide] | 5 ± 5.6% | dropped significantly | > 20 µM | 
5 | CCCCOc1ccc2c(c1)Cc1sc(NC(=O)c3cc(OC)cc(OC)c3)nc1-2 [compound 7b, N-(6-butoxy-8H-indeno[1,2-d]thiazol-2-yl)-3,5-dimethoxybenzamide] | 0.5 ± 4.9% | completely abolished | > 20 µM | 
6 | COc1cc(OC)cc(C(=O)Nc2nc3c(s2)CCc2cc(OC)ccc2-3)c1 [compound 7l] | -13.1 ± 1.7% | did not show any inhibitory activity | > 20 µM | 
7 | COc1ccc2c(c1)Cc1sc(NC(=O)c3cccs3)nc1-2 [compound 7j, N-(6-methoxy-8H-indeno[1,2-d]thiazol-2-yl)thiophene-2-carboxamide] | 31.9 ± 18.2% |  |  | > 20 µM
8 | COc1cc(OC)cc(C(=O)Nc2nc3c(s2)Cc2cc(OCC(C)C)ccc2-3)c1 [compound 7c, N-(6-isobutoxy-8H-indeno[1,2-d]thiazol-2-yl)-3,5-dimethoxybenzamide] | -3.1 ± 1.7% | completely abolished | > 20 µM | 
9 | COc1cc(OC)cc(C(=O)Nc2nc(-c3ccc(OC)cc3C)cs2)c1 [compound 10a] | 1.9 ± 2.1% | lost inhibitory activities | > 20 µM | 
10 | COc1ccc2c(c1)Cc1sc(NC(=O)c3ccc(Cl)cc3)nc1-2 [compound 7k, 4-chloro-N-(6-methoxy-8H-indeno[1,2-d]thiazol-2-yl)benzamide] | 1.5 ± 4.5% |  | > 20 µM | 
11 | COc1cc(OC)cc(C(=O)Nc2nc3c(s2)Cc2cc(C)ccc2-3)c1 [compound 7d, 3,5-dimethoxy-N-(6-methyl-8H-indeno[1,2-d]thiazol-2-yl)benzamide] | 21.7 ± 2.2% | completely abolished | > 20 µM | 
12 | COc1cc(OC)cc(C(=O)Nc2nc(-c3ccc(OC)c(C)c3)cs2)c1 [compound 10b, 3,5-dimethoxy-N-(4-(4-methoxy-3-methylphenyl)thiazol-2-yl)benzamide] | 1.8 ± 3.5% | lost inhibitory activities | > 20 µM | 
13 | COc1ccc2c(c1)Cc1sc(NC(=O)c3cc(OC(C)=O)cc(OC(C)=O)c3)nc1-2 [compound 7g, 5-((6-methoxy-8H-indeno[1,2-d]thiazol-2-yl)carbamoyl)-1,3-phenylene diacetate] | 32.6 ± 6.8% | dropped significantly | > 20 µM | 
14 | COc1cc(OC)cc(C(=O)Nc2nc3c(s2)Cc2cc(OC)ccc2-3)c1 [compound 7a] | 89.5 ± 2% |  | 1.28 ± 0.17 µM | 
15 | COc1cc(OC)cc(C(=O)Nc2nc3c(s2)Cc2ccc(OC)cc2-3)c1 [compound 4, 3,5-dimethoxy-N-(5-methoxy-8H-indeno[1,2-d]thiazol-2-yl)benzamide] |  |  | 6.42 ± 0.9 µM | 
